Experimental data: the supplement of paper PMC10307832

Compound: CN(NC(=O)CC(=O)NN(C)C(=S)c1ccccc1)C(=S)c1ccccc1 [Elesclomol] + CC(=O)c1c(C)c2cnc(Nc3ccc(N4CCNCC4)cn3)nc2n(C2CCCC2)c1=O [Palbociclib] (partner 0.5 µM)
Assay: relative viability (nuclei count vs DMSO), 5 days (fraction); higher = more cells survive
Summary of the method: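 Lung cancer cell lines in 1536-well plates were dosed by pin tool the day after seeding, either with one drug alone or with a fixed anchor-drug dose plus five library-drug doses (not always all listed) in √10 steps. After 5 days, cells were fixed and their nuclei stained in one step (final 0.05% Triton X-100, 1% formaldehyde, 1 ug/ml Hoechst), then counted on 4× images. Relative viability is the nuclei count in treated wells divided by that in vehicle wells. Values are medians of duplicate plates.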

| Cell Line | relative viability (first compound 0.003162 µM) | relative viability (first compound 0.01 µM) | relative viability (first compound 0.03162 µM) | relative viability (first compound 0.1 µM) |
| --- | --- | --- | --- | --- |
| EMC-BAC-2 | 0.514 | 0.369 | 0.455 | 0.352 |
| NCI-H661 | 0.408 | 0.337 | 0.235 | 0.181 |
| LU99A | 0.394 | 0.269 | 0.408 | 0.179 |
| LK-2 |  | 0.717 | 0.695 | 0.0756 |
| NCI-H3122 | 0.161 | 0.205 | 0.167 | 0.105 |
| NCI-H2347 | 0.401 | 0.441 | 0.328 | 0.321 |
| HCC-827 | 0.471 | 0.436 | 0.428 | 0.626 |
| NCI-H1666 | 0.682 | 0.563 | 0.575 | 0.583 |
| NCI-H358 | 0.132 | 0.105 | 0.0798 | 0.0844 |
| 201T | 0.349 | 0.358 | 0.354 | 0.372 |
| PC-3 [JPC-3] | 0.609 | 0.495 | 0.456 | 0.411 |
| NCI-H2405 | 0.507 | 0.395 | 0.303 | 0.28 |
| LXF-289 | 0.627 | 0.561 | 0.548 | 0.36 |
| EKVX | 0.334 | 0.155 | 0.143 | 0.105 |
| A-427 | 0.498 | 0.455 | 0.211 | 0.178 |
| ChaGo-K-1 | 0.875 | 0.882 | 0.568 | 0.154 |
| NCI-H2342 | 0.495 | 0.489 | 0.517 | 0.411 |
| SK-MES-1 | 0.325 | 0.291 | 0.221 | 0.184 |
| LCLC-97TM1 | 0.189 | 0.193 | 0.277 | 0.129 |
| NCI-H2170 | 0.396 | 0.358 | 0.358 | 0.29 |
| NCI-H1993 | 0.712 | 0.564 | 0.456 | 0.433 |
| NCI-H460 | 0.185 | 0.138 | 0.0179 | 0.0102 |
| NCI-H1975 | 0.579 | 0.263 | 0.205 | 0.0984 |
| RERF-LC-KJ | 0.911 | 0.714 | 0.581 | 0.288 |

| Cell Line | relative viability (first compound 0.003162 µM) | relative viability (first compound 0.01 µM) | relative viability (first compound 0.03162 µM) | relative viability (first compound 0.1 µM) |
| --- | --- | --- | --- | --- |
| NCI-H322M | 0.387 | 0.381 | 0.331 | 0.246 |
| NCI-H1651 | 0.509 | 0.516 | 0.532 | 0.341 |
| HARA | 0.239 | 0.278 | 0.284 | 0.233 |
| H3255 | 0.331 | 0.309 | 0.285 | 0.254 |
| NCI-H441 | 0.253 | 0.22 | 0.126 | 0.081 |
| CAL-12T | 0.435 | 0.118 | 0.0519 | 0.0654 |
| ABC-1 | 0.327 | 0.265 | 0.288 | 0.258 |
| NCI-H1792 | 0.544 | 0.569 | 0.607 | 0.662 |
| NCI-H1437 | 0.3 | 0.247 | 0.257 | 0.208 |
| HOP-62 | 0.461 | 0.333 | 0.305 | 0.144 |
| EPLC-272H | 0.352 | 0.117 | 0.118 | 0.112 |
| COR-L 105 | 0.397 | 0.358 | 0.317 | 0.291 |
| HCC-366 | 0.393 | 0.393 | 0.0812 | 0.0176 |
| HCC-44 | 0.975 | 0.895 | 0.939 | 0.952 |
| NCI-H2009 | 0.224 | 0.172 | 0.116 | 0.0798 |
| NCI-H23 | 0.531 | 0.413 | 0.269 | 0.127 |
| NCI-H727 | 0.633 | 0.494 | 0.676 | 0.497 |
| NCI-H1355 | 0.429 | 0.344 | 0.3 | 0.171 |
| NCI-H1944 | 0.328 | 0.328 | 0.347 | 0.227 |
| NCI-H2023 | 0.355 | 0.124 | 0.0385 | 0.0417 |
| NCI-H1650 | 0.234 | 0.155 | 0.104 | 0.0955 |
| NCI-H1395 | 0.659 | 0.36 | 0.309 | 0.219 |
| NCI-H2087 | 0.222 | 0.188 | 0.176 | 0.0806 |
| NCI-H838 | 0.229 | 0.189 | 0.247 | 0.143 |

| Cell Line | relative viability (first compound 0.003162 µM) | relative viability (first compound 0.01 µM) | relative viability (first compound 0.03162 µM) | relative viability (first compound 0.1 µM) |
| --- | --- | --- | --- | --- |
| NCI-H1793 | 0.3 | 0.297 | 0.247 | 0.123 |
| LC-2-ad | 0.482 | 0.409 | 0.223 | 0.193 |
| HCC-78 | 0.493 | 0.377 | 0.489 | 0.466 |
| NCI-H522 | 1.16 | 0.819 | 0.894 | 0.632 |
| LOU-NH91 | 0.518 | 0.566 | 0.535 | 0.508 |
| NCI-H1734 | 0.334 | 0.326 | 0.132 | 0.105 |
| NCI-H520 | 0.254 | 0.213 | 0.183 | 0.0937 |
| UMC-11 | 0.321 | 0.275 | 0.29 | 0.249 |
| NCI-H1755 | 0.483 | 0.429 | 0.462 | 0.393 |
| SK-LU-1 | 0.35 | 0.305 | 0.344 | 0.388 |
| NCI-H647 | 0.309 | 0.257 | 0.128 | 0.0311 |
| SW 1573 | 0.269 | 0.104 | 0.0985 | 0.0326 |
| HCC-15 | 0.714 | 0.629 | 0.518 | 0.12 |
| NCI-H2126 | 0.341 | 0.357 | 0.352 | 0.309 |
| NCI-H2085 | 0.459 | 0.423 | 0.333 | 0.255 |
| SW 900 | 0.531 | 0.453 | 0.168 | 0.0979 |
| BEN | 0.46 | 0.388 | 0.39 | 0.304 |
| NCI-H650 | 0.328 | 0.292 | 0.174 | 0.133 |
| LCLC-103H | 0.482 | 0.481 | 0.471 | 0.517 |
| PC-14 | 0.317 | 0.0274 | 0.02 | 0.0209 |
| NCI-H2228 | 0.676 | 0.513 | 0.225 | 0.0449 |
| COR-L23 | 0.276 | 0.17 | 0.153 | 0.115 |
| NCI-H1915 | 0.517 | 0.381 | 0.489 | 0.206 |
